# Experimental data reported in patent US20110212027A1, “RADIATIVE HEATING FOR DRUG DELIVERY AND OTHER APPLICATIONS” (priority 2008, published 2011).
# Test: Release from reservoir devices submerged in PBS
# Assay type: physicochemical
# Settings: physiologically-triggerable membrane
# Method: The devices were constructed as follows. Two 1 cm diameter disks were punched out of a membrane sheet produced as described above. A 1 cm length of ⅜ inch OD (¼ inch ID) silicone tubing (currently used for catheters) was then cut and a membrane disk was glued to one side of the tube using a LockTite low viscosity quick drying adhesive. (1 inch=2.54 cm) After 30 minutes of drying (under light pressure), the membrane-backed tube was then filled with drug or indicator solution. Sodium fluorescein (100 mg/mL in saline) and bupivacaine (10 mg/mL in saline, as well as bupivacaine powder in a saturated saline solution with solid chunks of drug also added to give a larger drug reservoir for release) were tested. The top membrane was then attached using glue following the same technique as for the bottom membrane and set for 30 minutes under light pressure. […] For flux testing, the devices were submerged in 5 mL of PBS at a specific test temperature, with samples taken at predetermined intervals to track the release kinetics. For the microwave antenna devices, two 0.4 cm […] strips of aluminum foil were glued to the outside of the device, one at the top of the device and the other at the bottom of the device (with a 0.2 mm gap in the center) using the same adhesive.
smiles,measurement,setting,value
CCCCN1CCCCC1C(=O)Nc1c(C)cccc1C (centres unmarked) [bupivacaine],release of bupivacaine from device into PBS,37° C.,below the minimal effective dose
same,release of bupivacaine from device into PBS,50° C.,above the minimal effective dose
